Results taken from ChEMBL document CHEMBL1129485, “Bis(31/31') ([CYS(31), Trp(32), Nva(34)] NPY-(31-36)): a specific NPY Y-1 receptor antagonist” (J Med Chem, 1996).
Positions of bridges follow the written chain, without caps; N, C: chain ends. Non-standard residues stand in square brackets, D forms with d. Residues, ends and D or L forms follow the SMILES beside them. Chains are numbered I, II in the order given. Nva = CCC[C@H](N)C(=O)O

Legend:
[1] = biological target: T1, Neuropeptide Y receptor type 2 (Homo sapiens, UniProt P49146); assay: Compound was tested for the displacement of [125I]-PYY(3-36) (SK-N-BE2) from Neuropeptide Y receptor type 2 in the membranes prepared from cells; type: cell membranes
T1 sequence (P49146 whole entry): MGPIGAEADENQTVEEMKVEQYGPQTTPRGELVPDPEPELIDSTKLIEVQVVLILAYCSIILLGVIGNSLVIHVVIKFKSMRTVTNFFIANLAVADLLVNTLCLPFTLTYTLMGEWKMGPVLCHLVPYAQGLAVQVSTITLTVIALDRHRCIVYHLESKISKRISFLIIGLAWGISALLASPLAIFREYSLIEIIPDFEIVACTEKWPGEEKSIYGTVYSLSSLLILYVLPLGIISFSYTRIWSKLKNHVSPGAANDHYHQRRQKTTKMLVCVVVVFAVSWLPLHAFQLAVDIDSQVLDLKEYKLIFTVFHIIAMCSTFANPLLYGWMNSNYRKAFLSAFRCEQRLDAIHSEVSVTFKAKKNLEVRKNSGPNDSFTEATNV

[2] = biological target: T2, Neuropeptide Y receptor type 1 (Homo sapiens, UniProt P25929); assay: Compound was tested for the displacement of [125I]-PYY (SK-N-MC) from Neuropeptide Y receptor type 1 in the membranes prepared from cells; type: cell membranes
T2 sequence (P25929 whole entry): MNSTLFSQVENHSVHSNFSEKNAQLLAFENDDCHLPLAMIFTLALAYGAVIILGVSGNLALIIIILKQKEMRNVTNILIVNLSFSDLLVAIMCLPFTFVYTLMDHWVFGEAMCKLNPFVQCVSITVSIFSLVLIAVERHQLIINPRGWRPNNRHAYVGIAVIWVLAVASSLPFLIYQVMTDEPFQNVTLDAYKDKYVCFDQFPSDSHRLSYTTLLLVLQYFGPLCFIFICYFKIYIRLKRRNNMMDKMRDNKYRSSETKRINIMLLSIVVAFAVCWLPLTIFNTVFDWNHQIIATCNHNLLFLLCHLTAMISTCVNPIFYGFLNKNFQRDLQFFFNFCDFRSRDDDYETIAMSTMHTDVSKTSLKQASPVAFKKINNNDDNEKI

Structure (SMILES) | Ki [1] | Ki [2]
CCC[C@H](NC(=O)[C@H](CCCN=C(N)N)NC(=O)[C@@H](Cc1c[nH]c2ccccc12)NC(=O)[C@H](CSSC[C@H](NC(=O)[C@H](CC(C)C)NC(=O)[C@H](Cc1c[nH]c2ccccc12)NC(=O)[C@@H](N)Cc1ccc(O)cc1)C(=O)N[C@H](Cc1c[nH]c2ccccc12)C(=O)N[C@@H](CCCN=C(N)N)C(=O)N[C@@H](CCC)C(=O)N[C@@H](CCCN=C(N)N)C(=O)N[C@@H](Cc1ccc(O)cc1)C(N)=O)NC(=O)[C@H](CC(C)C)NC(=O)[C@H](Cc1c[nH]c2ccccc12)NC(=O)[C@@H](N)Cc1ccc(O)cc1)C(=O)N[C@@H](CCCN=C(N)N)C(=O)N[C@@H](Cc1ccc(O)cc1)C(N)=O | 704 nM | 143 nM
CCC[C@H](NC(=O)[C@H](CCCN=C(N)N)NC(=O)[C@@H](NC(=O)[C@H](CSSC[C@H](NC(=O)[C@H](CC(C)C)NC(=O)[C@@H](NC(=O)[C@@H](N)Cc1ccc(O)cc1)[C@@H](C)CC)C(=O)N[C@H](C(=O)N[C@@H](CCCN=C(N)N)C(=O)N[C@@H](CCC)C(=O)N[C@@H](CCCN=C(N)N)C(=O)N[C@@H](Cc1ccc(O)cc1)C(N)=O)[C@@H](C)O)NC(=O)[C@H](CC(C)C)NC(=O)[C@@H](NC(=O)[C@@H](N)Cc1ccc(O)cc1)[C@@H](C)CC)[C@@H](C)O)C(=O)N[C@@H](CCCN=C(N)N)C(=O)N[C@@H](Cc1ccc(O)cc1)C(N)=O (I: H-YILCTR[Nva]RY-NH2 / II: H-YILCTR[Nva]RY-NH2; disulfide I:4-II:4) | 3980 nM | 49 nM
CCC[C@H](NC(=O)[C@H](CCCNC(=N)N)NC(=O)[C@H](Cc1c[nH]c2ccccc12)NC(=O)[C@H](CSSC[C@H](NC(=O)[C@H](CC(C)C)NC(=O)[C@@H](NC(=O)[C@@H](N)Cc1ccc(O)cc1)[C@@H](C)CC)C(=O)N[C@@H](Cc1c[nH]c2ccccc12)C(=O)N[C@@H](CCCNC(=N)N)C(=O)N[C@@H](CCC)C(=O)N[C@@H](CCCNC(=N)N)C(=O)N[C@@H](Cc1ccc(O)cc1)C(N)=O)NC(=O)[C@H](CC(C)C)NC(=O)[C@@H](NC(=O)[C@@H](N)Cc1ccc(O)cc1)[C@@H](C)CC)C(=O)N[C@@H](CCCNC(=N)N)C(=O)N[C@@H](Cc1ccc(O)cc1)C(N)=O (I: H-YILCWR[Nva]RY-NH2 / II: H-YILCWR[Nva]RY-NH2; disulfide I:4-II:4) | 988 nM | 95 nM
CCC[C@H](NC(=O)[C@H](CCCN=C(N)N)NC(=O)[C@H](Cc1c[nH]c2ccccc12)NC(=O)[C@H](CSSC[C@H](NC(=O)[C@H](CC(C)C)NC(=O)[C@H](CC(N)=O)NC(=O)[C@@H](NC(=O)[C@@H](N)Cc1ccc(O)cc1)[C@@H](C)CC)C(=O)N[C@@H](Cc1c[nH]c2ccccc12)C(=O)N[C@@H](CCCN=C(N)N)C(=O)N[C@@H](CCC)C(=O)N[C@@H](CCCN=C(N)N)C(=O)N[C@@H](Cc1ccc(O)cc1)C(N)=O)NC(=O)[C@H](CC(C)C)NC(=O)[C@H](CC(N)=O)NC(=O)[C@@H](NC(=O)[C@@H](N)Cc1ccc(O)cc1)[C@@H](C)CC)C(=O)N[C@@H](CCCN=C(N)N)C(=O)N[C@@H](Cc1ccc(O)cc1)C(N)=O (I: H-YINLCWR[Nva]RY-NH2 / II: H-YINLCWR[Nva]RY-NH2; disulfide I:5-II:5) | 3410 nM | 44 nM

Results, then the molecule that gave them:

Ki [1] | Ki [2] | Structure (SMILES)
621 nM | 93 nM | CCC[C@H](NC(=O)[C@H](CCCN=C(N)N)NC(=O)[C@H](Cc1c[nH]c2ccccc12)NC(=O)[C@H](CSSC[C@H](NC(=O)[C@H](CC(C)C)NC(=O)[C@H](Cc1c[nH]c2ccccc12)NC(=O)[C@@H](N)Cc1ccc(O)cc1)C(=O)N[C@@H](Cc1c[nH]c2ccccc12)C(=O)N[C@@H](CCCN=C(N)N)C(=O)N[C@@H](CCC)C(=O)N[C@@H](CCCN=C(N)N)C(=O)N[C@@H](Cc1ccc(O)cc1)C(N)=O)NC(=O)[C@H](CC(C)C)NC(=O)[C@H](Cc1c[nH]c2ccccc12)NC(=O)[C@@H](N)Cc1ccc(O)cc1)C(=O)N[C@@H](CCCN=C(N)N)C(=O)N[C@@H](Cc1ccc(O)cc1)C(N)=O
> 10000 nM | 46 nM | CCC[C@H](NC(=O)[C@H](CCCNC(=N)N)NC(=O)[C@H](Cc1c[nH]c2ccccc12)NC(=O)[C@@H](N)CSSC[C@H](N)C(=O)N[C@@H](Cc1c[nH]c2ccccc12)C(=O)N[C@@H](CCCNC(=N)N)C(=O)N[C@@H](CCC)C(=O)N[C@@H](CCCNC(=N)N)C(=O)N[C@@H](Cc1ccc(O)cc1)C(N)=O)C(=O)N[C@@H](CCCNC(=N)N)C(=O)N[C@@H](Cc1ccc(O)cc1)C(N)=O (I: H-CWR[Nva]RY-NH2 / II: H-CWR[Nva]RY-NH2; disulfide I:1-II:1)
2080 nM | 36 nM | CCC[C@H](NC(=O)[C@H](CCCN=C(N)N)NC(=O)[C@@H](NC(=O)[C@H](CSSC[C@H](NC(=O)[C@H](CC(C)C)NC(=O)[C@H](CC(N)=O)NC(=O)[C@@H](NC(=O)[C@@H](N)Cc1ccc(O)cc1)[C@@H](C)CC)C(=O)N[C@H](C(=O)N[C@@H](CCCN=C(N)N)C(=O)N[C@@H](CCC)C(=O)N[C@@H](CCCN=C(N)N)C(=O)N[C@@H](Cc1ccc(O)cc1)C(N)=O)[C@@H](C)O)NC(=O)[C@H](CC(C)C)NC(=O)[C@H](CC(N)=O)NC(=O)[C@@H](NC(=O)[C@@H](N)Cc1ccc(O)cc1)[C@@H](C)CC)[C@@H](C)O)C(=O)N[C@@H](CCCN=C(N)N)C(=O)N[C@@H](Cc1ccc(O)cc1)C(N)=O (I: H-YINLCTR[Nva]RY-NH2 / II: H-YINLCTR[Nva]RY-NH2; disulfide I:5-II:5)
